According to patent US20260274807A1 (University of Health Sciences and Pharmacy in St. Louis, priority 2023, published 2026):

Key:
[1] = molecular target: T1, ERRα (Homo sapiens, UniProt P11474); assay: ERRE luciferase reporter assay in HEK293 cells transfected with pcDNA3.1 ERRα; type: cell-based; set-up: key to EC50 (ERRα) μM: * <1 μM; ** 1-5 μM; *** >5 μM; i.a. (inactive); details: HEK293 cells transfected with ERRE reporter construct and pcDNA3.1 ERRα; compound for 24 hours; luciferase activity
T1 construct: expressed in transfected cells; host or cells: HEK293
T1 sequence (P11474 1-423): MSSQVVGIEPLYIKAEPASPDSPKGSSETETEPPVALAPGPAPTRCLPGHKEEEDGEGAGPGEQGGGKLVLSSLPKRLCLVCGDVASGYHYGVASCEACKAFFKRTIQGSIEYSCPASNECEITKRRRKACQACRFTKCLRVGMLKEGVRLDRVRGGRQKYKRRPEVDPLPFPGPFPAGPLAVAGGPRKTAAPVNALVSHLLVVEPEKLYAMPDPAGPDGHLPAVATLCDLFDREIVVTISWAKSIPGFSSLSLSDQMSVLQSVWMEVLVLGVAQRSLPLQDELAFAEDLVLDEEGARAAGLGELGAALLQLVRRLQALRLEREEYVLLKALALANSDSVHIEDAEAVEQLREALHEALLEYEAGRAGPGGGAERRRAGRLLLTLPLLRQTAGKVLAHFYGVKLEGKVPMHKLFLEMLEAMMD

[2] = molecular target: T2, ERRγ (Homo sapiens, UniProt P62508); assay: ERRE luciferase reporter assay in HEK293 cells transfected with pcDNA3.1 ERRγ; type: cell-based; set-up: key to EC50 (ERRγ) μM: * <1 μM; ** 1-5 μM; *** >5 μM; i.a. (inactive); details: HEK293 cells transfected with ERRE reporter construct and pcDNA3.1 ERRγ; compound for 24 hours; luciferase activity
T2 construct: expressed in transfected cells; host or cells: HEK293
T2 sequence (P62508 1-458): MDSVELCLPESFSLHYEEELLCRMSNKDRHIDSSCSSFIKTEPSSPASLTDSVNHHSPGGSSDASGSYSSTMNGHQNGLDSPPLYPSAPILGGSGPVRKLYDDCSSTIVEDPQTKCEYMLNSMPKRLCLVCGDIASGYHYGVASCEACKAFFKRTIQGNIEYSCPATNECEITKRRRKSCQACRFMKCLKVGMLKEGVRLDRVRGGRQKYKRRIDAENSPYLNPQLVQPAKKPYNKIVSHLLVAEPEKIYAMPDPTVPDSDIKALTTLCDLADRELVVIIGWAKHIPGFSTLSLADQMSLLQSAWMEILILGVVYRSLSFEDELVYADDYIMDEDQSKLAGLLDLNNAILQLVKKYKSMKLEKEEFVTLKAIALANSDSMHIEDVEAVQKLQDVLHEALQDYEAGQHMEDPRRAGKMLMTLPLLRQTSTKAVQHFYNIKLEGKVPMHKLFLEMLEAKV

Compound | EC50 [1] | EC50 [2] | EC50 (ERRα) μM [1] | EC50 (ERRγ) μM [2]
COc1ccc(-c2nnc(-c3ccccc3[N+](=O)[O-])s2)cc1 [Entry 1021, 2-(4-methoxyphenyl)-5-(2-nitrophenyl)-1,3,4-thiadiazole] | < 1000 nM | < 1000 nM |  | 
COc1ccc(-c2nnc(-c3cccs3)s2)cc1 [Entry 1022, 2-(4-methoxyphenyl)-5-(thiophen-2-yl)-1,3,4-thiadiazole] | < 1000 nM | < 1000 nM |  | 
COc1cccc(-c2nnc(-c3ccccc3)s2)c1[N+](=O)[O-] [Entry 1023, 2-(3-methoxy-2-nitrophenyl)-5-phenyl-1,3,4-thiadiazole] | < 1000 nM | < 1000 nM |  | 
COc1ccc(-c2nnc(-c3ccccc3Cl)s2)cc1 [Entry 1024, 2-(2-chlorophenyl)-5-(4-methoxyphenyl)-1,3,4-thiadiazole] | < 1000 nM | < 1000 nM |  | 
Cc1ccc(-c2nnc(-c3ccnc4ccccc34)s2)cc1 [Entry 1025, 2-(quinolin-4-yl)-5-(p-tolyl)-1,3,4-thiadiazole] | < 1000 nM | < 1000 nM |  | 
COc1ccc(-c2nnc(-c3ccccc3)s2)c(N)c1 [Entry 1026, 5-methoxy-2-(5-phenyl-1,3,4-thiadiazol-2-yl)aniline] | > 5000 nM | > 5000 nM |  | 
CC(C)(C)c1ccc(-c2nnc(-c3ccccc3N)s2)cc1 [Entry 1027, 2-(5-(4-(tert-butyl)phenyl)-1,3,4-thiadiazol-2-yl)aniline] | < 1000 nM | < 1000 nM |  | 
O=[N+]([O-])c1ccccc1Cc1nnc(-c2ccc(C(F)(F)F)cc2)s1 [Entry 1028, 2-(2-nitrobenzyl)-5-(4-(trifluoromethyl)phenyl)-1,3,4-thiadiazole] | 1000 to 5000 nM | 1000 to 5000 nM |  | 
Cc1ccc(-c2nnc(-c3ccc(C)o3)s2)cc1 [Entry 1029, 2-(5-methylfuran-2-yl)-5-(p-tolyl)-1,3,4-thiadiazole] | 1000 to 5000 nM | < 1000 nM |  | 
Nc1ccc(-c2nnc(-c3ccccc3)s2)cc1 [Entry 1030, 4-(5-phenyl-1,3,4-thiadiazol-2-yl)aniline] | < 1000 nM | < 1000 nM |  | 
Cc1ccc(-c2nnc(-c3cccs3)s2)cc1 [Entry 1031, 2-(thiophen-2-yl)-5-(p-tolyl)-1,3,4-thiadiazole] | < 1000 nM | < 1000 nM |  | 
O=C(Nc1nnc(-c2ccccc2)s1)c1ccccc1 [Entry 1032, N-(5-phenyl-1,3,4-thiadiazol-2-yl)benzamide] |  |  | i.a. | i.a.
COc1ccc(-c2nnc(NC(=O)c3ccccc3)s2)cc1 [Entry 1033, N-(5-(4-methoxyphenyl)-1,3,4-thiadiazol-2-yl)benzamide] |  |  | i.a. | i.a.
Cc1ccc(C(=O)Nc2nnc(-c3ccccc3Cl)s2)cc1 [Entry 1034, N-(5-(2-chlorophenyl)-1,3,4-thiadiazol-2-yl)-4-methylbenzamide] |  |  | i.a. | i.a.
COc1ccc([N+](=O)[O-])c(-c2nnc(-c3ccccc3)s2)c1 [Entry 1035, 2-(5-methoxy-2-nitrophenyl)-5-phenyl-1,3,4-thiadiazole] | 1000 to 5000 nM | 1000 to 5000 nM |  | 
COc1ccc(-c2nnc(-c3ccccc3)s2)c([N+](=O)[O-])c1 [Entry 1036, 2-(4-methoxy-2-nitrophenyl)-5-phenyl-1,3,4-thiadiazole] | < 1000 nM | < 1000 nM |  | 
O=[N+]([O-])c1cc(Br)ccc1-c1nnc(-c2ccccc2)s1 [Entry 1037, 2-(4-bromo-2-nitrophenyl)-5-phenyl-1,3,4-thiadiazole] | 1000 to 5000 nM | < 1000 nM |  | 
c1ccc(Cc2nnc(-c3ccccc3)s2)cc1 [Entry 1038, 2-benzyl-5-phenyl-1,3,4-thiadiazole] | 1000 to 5000 nM | 1000 to 5000 nM |  | 
c1ccc(-c2ccc(Cc3nnc(-c4ccccc4)s3)cc2)cc1 [Entry 1039, 2-([1,1′-biphenyl]-4-ylmethyl)-5-phenyl-1,3,4-thiadiazole] | > 5000 nM | > 5000 nM |  | 
Cc1cccc(-c2nnc(-c3ccccc3Cl)s2)c1 [Entry 1041, 2-(2-chlorophenyl)-5-(m-tolyl)-1,3,4-thiadiazole] | > 5000 nM | < 1000 nM |  | 

Compound | EC50 [1] | EC50 [2] | EC50 (ERRα) μM [1] | EC50 (ERRγ) μM [2]
Cc1ccc(-c2nnc(-c3ccc4ccccc4n3)s2)cc1 [Entry 1042, 2-(quinolin-2-yl)-5-(p-tolyl)-1,3,4-thiadiazole] | > 5000 nM | < 1000 nM |  | 
Cc1ccc(-c2nnc(-c3cccc4ccccc34)s2)cc1 [Entry 1043, 2-(naphthalen-1-yl)-5-(p-tolyl)-1,3,4-thiadiazole] | < 1000 nM | < 1000 nM |  | 
Cc1ccc(-c2nnc(-c3ccc4ccccc4c3)s2)cc1 [Entry 1044, 2-(naphthalen-2-yl)-5-(p-tolyl)-1,3,4-thiadiazole] | > 5000 nM | < 1000 nM |  | 
Cc1ccc(-c2nnc(-c3cccc(Cl)c3)s2)cc1 [Entry 1045, 2-(3-chlorophenyl)-5-(p-tolyl)-1,3,4-thiadiazole] | < 1000 nM | < 1000 nM |  | 
Oc1ccc(-c2nnc(-c3ccc4ccccc4c3)s2)cc1 [Entry 1046, 4-(5-(naphthalen-2-yl)-1,3,4-thiadiazol-2-yl)phenol] | < 1000 nM | < 1000 nM |  | 
Oc1ccc(-c2nnc(-c3ccc4ccccc4n3)s2)cc1 [Entry 1047, 4-(5-(quinolin-2-yl)-1,3,4-thiadiazol-2-yl)phenol] |  |  | i.a. | i.a.
Cc1ccc(-c2nnc(-c3ccc(Cl)cc3)s2)cc1 [Entry 1048, 2-(4-chlorophenyl)-5-(p-tolyl)-1,3,4-thiadiazole] | < 1000 nM | < 1000 nM |  | 
COC(=O)c1cccc(-c2nnc(-c3ccccc3Cl)s2)c1 [Entry 1050, methyl 3-(5-(2-chlorophenyl)-1,3,4-thiadiazol-2-yl)benzoate] | < 1000 nM | < 1000 nM |  | 
COC(=O)c1ccc(-c2nnc(-c3ccccc3Cl)s2)cc1 [Entry 1051, methyl 4-(5-(2-chlorophenyl)-1,3,4-thiadiazol-2-yl)benzoate] | < 1000 nM | < 1000 nM |  | 
CCCCOc1ccc(-c2nnc(-c3ccccc3Cl)s2)cc1 [Entry 1052, 2-(4-butoxyphenyl)-5-(2-chlorophenyl)-1,3,4-thiadiazole] | < 1000 nM | < 1000 nM |  | 
Cc1ccc(-c2nnc(-c3cnn(-c4ccccc4)c3)s2)cc1 [Entry 1053, 2-(1-phenyl-1H-pyrazol-4-yl)-5-(p-tolyl)-1,3,4-thiadiazole] | > 5000 nM | < 1000 nM |  | 
Cc1ccc(-c2nnc(-c3ccc(B(O)O)cc3)s2)cc1 [Entry 1055, (4-(5-(p-tolyl)-1,3,4-thiadiazol-2-yl)phenyl)boronic acid] | < 1000 nM | < 1000 nM |  | 
Cc1ccc(-c2nnc(-c3cccc4ncccc34)s2)cc1 [Entry 1058, 2-(quinolin-5-yl)-5-(p-tolyl)-1,3,4-thiadiazole] | < 1000 nM | < 1000 nM |  | 
Clc1ccccc1-c1nnc(-c2cccc3ncccc23)s1 [Entry 1059, 2-(2-chlorophenyl)-5-(quinolin-5-yl)-1,3,4-thiadiazole] | < 1000 nM | < 1000 nM |  | 
Cc1ccc(-c2nnc(-c3nccs3)s2)cc1 [Entry 1060, 2-(thiazol-2-yl)-5-(p-tolyl)-1,3,4-thiadiazole] | < 1000 nM | < 1000 nM |  | 
Clc1ccccc1-c1nnc(-c2nccs2)s1 [Entry 1061, 2-(2-chlorophenyl)-5-(thiazol-2-yl)-1,3,4-thiadiazole] | > 5000 nM | > 5000 nM |  | 
FC(F)(F)c1ccc(-c2nnc(-c3cccc4ncccc34)s2)cc1 [Entry 1062, 2-(quinolin-5-yl)-5-(4-(trifluoromethyl)phenyl)-1,3,4-thiadiazole] | < 1000 nM | < 1000 nM |  | 
COC(=O)c1cccc(-c2nnc(-c3ccc(C(F)(F)F)cc3)s2)c1 [Entry 1064, methyl 3-(5-(4-(trifluoromethyl)phenyl)-1,3,4-thiadiazol-2-yl)benzoate] | > 5000 nM | 1000 to 5000 nM |  | 
COc1ccc(-c2nnc(-c3ccc(C(F)(F)F)cc3)s2)cn1 [Entry 1071, 2-(6-methoxypyridin-3-yl)-5-(4-(trifluoromethyl)phenyl)-1,3,4-thiadiazole] | < 1000 nM | 1000 to 5000 nM |  | 
Cc1cccc(-c2nnc(-c3cccc(C(F)(F)F)c3)s2)n1 [Entry 1073, 2-(6-methylpyridin-2-yl)-5-(3-(trifluoromethyl)phenyl)-1,3,4-thiadiazole] | > 5000 nM | 1000 to 5000 nM |  | 
